We go through five compounds from patent US8466286B2, “SMMR (small molecule metabolite reporters) for use as in vivo glucose biosensors” (Cercacor Laboratories, Inc., priority 2003, dated 2013).

Where two headings read alike, the source gives them in different places.

The nature of test [1]: Glucose response rate in stirred cuvette, pH 8 phosphate buffer. The settings on record: 100 μL of 300 mg/dL glucose in pH 8 buffer; ex 340 nm, em 440 nm; read every 15 seconds. The procedure:
Arg-327 unprotected batches were prepared. One batch was supplied as a yellow powder and the other as a concentrated solution in deuterated methanol. A small sample of these materials was taken and dissolved in 3 ml of pH 8 phosphate buffer. The fluorescence of these materials was excited at 340 nm and the emission monitored at 440 nm. The fluorescence was monitored every 15 seconds in a stirred cuvette. After about 3 minutes 100 μL of 300 mg/dL glucose in pH 8 buffer was added. […] Similar results were obtained for both samples.

The conditions of test [2]: for response to glucose in vitro: addition of glucose.
Test [3] deals with PHK cells. As to the kind of experiment: In-vitro detection in PHK cells loaded with reporter, two-photon fluorescent imaging. In kind it is cell-based. The settings on record: 50 micromolar reporter; glucose increased to 300 mg/dl; EM 440 nm, 2P excitation 705 nm. The procedure:
PHK cells were loaded with AF-327d reporter, at 50 micromolar concentration, in buffer. Fluorescence was measured using a two-photon fluorescent imaging system at approximately EM 440 nm, and excitation at (2P) 705 nm. Pictures taken 10 minutes apart show a slight change in fluorescence intensity upon increasing the glucose concentration to 300 mg/dl in the cell buffer medium. This is seen clearly, as a 20% decrease in time course of fluorescence.

Test [4] deals with living cells. Briefly: Membrane potential (Rh123 fluorescence quenching) to track D-glucose in living cells. In kind it is cell-based. The settings on record: glucose 0 to 5 mg/dL (0.28 mM). The protocol:
The fluorescence quenching is an indication of membrane potential changes within living cells with respect to an increase in glucose concentration, as shown in FIG. 17 (glucose from 0 to 400 mg/dL) and FIG. 18 (glucose from 0 to 66 mg/dL).
The saturation point value was expected to be between 0.0 and 2 mg/dL.

The mark [5] stands for this setting: glucose zero to 300 mg/dL, in vitro.

In the case of `O=C(Nc1ccc2c(C(F)(F)F)cc(=O)oc2c1)c1ccc(B(O)O)cc1` [AF-327d], the “glucose response rate (fluorescence after glucose addition)” value in test [1] is recorded as “increased immediately”. Besides, in test [2], the “response to glucose in vitro” value is “stronger response to glucose than other published compounds”. For the same compound, the “change of absorption spectrum at the excitation wavelength as a function of glucose concentration” value in test [2] (excitation 375 nm) is reported as “less than 10%”. In addition, the “increase of fluorescence intensity with glucose” value in test [2] (glucose range of 200 mg/dL, excitation 375 nm, emission 400-550 nm) was “at least 40%”; in test [2] (setting [5]), 60%. Moreover, the “decrease in time course of fluorescence” value in test [3] amounted to 20%.

As to `O=C(Nc1ccc([N+](=O)[O-])cc1)c1ccc(B(O)O)cc1` [AF-339], the “response to glucose in vitro” value in test [2] is given as “weaker than AF-327”.

On to `O=C(/C=C/c1ccc(B(O)O)cc1)c1cc2ccccc2oc1=O` [AF-343], for which the “response to glucose in vitro” value in test [2] is reported as “No fluorescence or glucose effect”.

Regarding `O=C(Nc1ccc2oc(=O)c3ccccc3c2c1)c1ccc(B(O)O)cc1` [AF-345], in test [2] (setting [5]), the “increase of fluorescence intensity with glucose” value was found to be 30%.

As for `COC(=O)c1ccccc1-c1c2ccc(=N)cc-2oc2cc(N)ccc12.Cl` [Rh123], the “Rh123 fluorescence with increasing glucose levels” value in test [4] is listed as “approximate linear decrease”.
